Laboratory results: patent US7297696B2, “Antagonists of MCP-1 function and methods of use thereof” (Telik, Inc., priority 2001, dated 2007)

Assays:
Assay type in all cases: in vivo
[1] = tested on: apoE-deficient mice; experiment: Apolipoprotein E-deficient mouse model of atherosclerosis; conditions: 50 mg/kg as food admixture for 8 weeks, high-fat diet; percent of total cross-sectional wall area
Description: Apolipoprotein E (apoE) is a component of several plasma lipoproteins, including chylomicrons, VLDL, and HDL. Receptor-mediated catabolism of these lipoprotein particles is mediated through the interaction of apoE with the LDL receptor (LDLR) or with LDLR-related protein (LRP). […] The efficacy of the compounds of the present invention was also evaluated using this animal model.
Male, 4 week-old apoE-deficient mice were fed on high-fat diet (15% fat, 1.25% cholesterol). The test compound was administered as food admixture for 8 weeks. At 12 weeks old, the mice were fasted for 4 hours and then sacrificed under ether anesthesia. […]
To determine cross-sectional lesion areas, the hearts were embedded in OCT compound and sectioned at 10 μm using cryostat. The sections were stained with oil red O. Each section of the aortic valve was evaluated for oil red O staining by capturing images directly from a RGB camera attached to a light microscope; image analysis was performed with the IPAP-WIN software (Sumika Tekno, Japan). Five sections were examined for each animal, and the sum of the lesion areas was calculated and expressed as the percent of the total cross-sectional wall area. Total cholesterol was determined with a Determiner assay kit (Kyowa Medex, Japan).

[2] = tested on: ICR male mice; experiment: Thioglycollate-induced inflammation model; conditions: peritoneal cavity, 96 h; 10 mg/kg subcutaneous at 0 h, 3 h and 16 hours
Description: 3% Brewer's thioglycollate broth (Difco, Detroit, Mich.) was injected into the petitoneal cavity of ICR male mice, followed by subcutaneous administration of the test compounds at the same dose after 0 h, 3 h and 16 hours. After 96 h, the number of total elicited cells and MOMA2-positive cells in the peritoneal cavity was analyzed using an EPICS XL Beckman Coulter.

[3] = tested on: male ICR mice; experiment: Caerulein-induced pancreatitis; conditions: 20 mg/kg orally after caerulein injection, then at 3 h and 6 h; blood after 15 h
Description: Caerulein was injected intraperitoneally to male ICR mice every 1 h for 6 h. The test compound was given orally immediately after the caerulein injection, and then again at 3 h and 6 h. After 15 h, the mice were sacrificed and their blood was collected and analyzed for serum amylase activity as a marker of pancreatitis.

O=C(O)COc1ccc(NC(=O)NC(=O)c2ccc3c(c2)OCCO3)cc1Cl [Compound 55, 2-(4-{[(2H,3H-Benzo[e]1,4-dioxan-6-ylcarbonylamino)carbonyl]amino}-2-chlorophenoxy)acetic acid]
% Atherosclerotic Lesion (mean ± SD) [1]: 17.80 ± 3.43 %
MOMA2-positive Cells [2]: 10.1 ± 1.5 ×10^6
Total Cells [2]: 14.1 ± 1.6 ×10^6

O=C(NC(=O)c1ccc2c(c1)OCCO2)Nc1ccc(C(=O)[O-])c(Cl)c1.[Na+] [Compound 57, Sodium 4-{[(2H,3H-benzo[e]1,4-dioxan-6-ylcarbonylamino)carbonyl]amino}-2-chlorobenzoate]
Serum Amylase Level (U, Caraway, mean ± SD) [3]: 551 ± 157 U, Caraway

O=C(NC(=O)c1ccc2c(c1)OCCO2)Nc1ccc(C(=O)[O-])cc1.[Na+] [Compound 59, Sodium 4-{[(2H,3H-benzo[3,4-e]1,4-dioxin-6-ylcarbonylamino)carbonyl]amino}benzoate]
% Atherosclerotic Lesion (mean ± SD) [1]: 21.08 ± 6.86%
MOMA2-positive Cells [2]: 13.2 ± 1.4 ×10^6
Total Cells [2]: 17.3 ± 1.7 ×10^6
